# Patent US11198680B2 (BioAxone BioSciences, Inc., priority 2016, dated 2021)
# Experiments:
# hBMVEC monolayer = experiment: LPA-treated hBMVECs, endothelial monolayer integrity; assay type: cell-based, human; details: 1 μM or 10 μM, 20 μM LPA, Example 16, present tense
# Protocol: Cells are exposed to each dose for 1 hr, and are then stimulated with 20 μM LPA for either 5 min or 1 hr as described below. All experiments are conducted in triplicate and analyzed by 2 independent assessors blinded to both cell line and treatment.
# To examine hBMVECs monolayer integrity, cells are plated on PDL-coated coverslips (Corning) coated with Fibronectin, Collagen-1 and gelatin. 50,000 cells are seeded on each coverslip situated in a 24-well plate. Cells are grown for 3 days in ENDO-growth media (Neuromics) at 37° C./5% CO2. […] The medium is exchanged for ENDO basal media supplemented with 1% HSA, 20 μM of LPA (Santa Cruz Biotech; Santa Cruz, Calif.) and the appropriate amount of compound being tested. After 60 min, cells were fixed with 4% paraformaldehyde and stained for actin-phalloidin (ThermoFisher) and V-Cadherin (Cell Signaling), and then were mounted on microscope slides. Coverslips were imaged by fluorescence microscopy and the cell-free holes in the monolayer are measured using Image J. 3.
# ROCK1 = experiment: KINOMEscan kinome screen; details: percent of negative control binding; first ROCK1 row
# Source text: The KINOMEscan™ screening platform (DiscoverX, Fremont, Calif.) employs a novel active site-directed competition binding assay to quantitatively measure interactions between test compounds and more than 450 human kinases and disease relevant mutant variants. […] Compounds that bind the kinase active site and directly (sterically) or indirectly (allosterically) prevent kinase binding to the immobilized ligand, will reduce the amount of kinase captured on the solid support. […] Screening “hits” are identified by measuring the amount of kinase captured in test versus control samples by using a quantitative, precise and ultra-sensitive qPCR method that detects the associated DNA label.
# Kinase-tagged T7 phage strains were grown in parallel in 24-well blocks in an E. coli host derived from the BL21 strain. E. coli were grown to log-phase and infected with T7 phage from a frozen stock (multiplicity of infection=0.4) and incubated with shaking at 32° C. until lysis (90-150 minutes). The lysates were centrifuged (6,000×g) and filtered (0.2 μm) to remove cell debris. The remaining kinases were produced in HEK-293 cells and subsequently tagged with DNA for qPCR detection (Wein, et al. (2016) Nat. Comm. 7). […] Test compounds were prepared as 40× stocks in 100% DMSO and directly diluted into the assay. All reactions were performed in polypropylene 384-well plates in a final volume of 0.02 ml.
smiles,measurement,setting,value
C[C@@H](N)C1CCN(S(=O)(=O)c2cccc3c(=O)[nH]ccc23)CC1 [1-hydroxy-BA-1049 (R)],monolayer integrity / Rho/ROCK activation after LPA,hBMVEC monolayer,prevent Rho/ROCK activation
same,"% Negative Binding, ROCK1",ROCK1,0.15%
